Values after ≈ are worked out from the molar mass of the structure shown.
Columns and labels:
[1] = tested on: Rabbit reticulocyte in vitro trans. sys.; assay: In vitro protein synthesis, eucaryotic (rabbit reticulocyte) translation system; type: biochemical
[2] = tested on: Escherichia coli SGB-888; assay: MIC, liquid broth tube dilution assay, E. coli SGB-888; type: cell-based; details: H108 medium, 37° C., 6-7 hours
Protocol: (§1) (1) Determination of the minimum concentration of bacillaene required for total inhibition of growth (MIC) was performed using liquid H108 medium containing Bacto-Tryptone (10g); Bacto-yeast extract (5 g); NaCl (5 g); and distilled water (1 liter). The assays were performed in 13×100 mm glass tubes in a final volume of 0.5 ml. Two fold dilutions of the compound were utilized. The cultures were incubated at 37° C. in a test-tube rack on a shaker. Presence of turbidity was used as an indicator of growth. The tubes were read after 6-7 hours of incubation.

[3] = tested on: Saccharomyces cervesiae; assay: Growth of eukaryotic cells; type: cell-based
[4] = tested on: Escherichia coli BAS-2006; assay: MIC, liquid broth tube dilution assay, E. coli BAS-2006; type: cell-based; details: H108 medium, 37° C., 6-7 hours
Protocol: as §1

[5] = tested on: Escherichia coli SGB-10857; assay: MIC, liquid broth tube dilution assay, E. coli SGB-10857; type: cell-based; details: H108 medium, 37° C., 6-7 hours
Protocol: as §1

[6] = tested on: Escherichia coli K-10; assay: MIC, liquid broth tube dilution assay, E. coli K-10; type: cell-based; details: H108 medium, 37° C., 6-7 hours
Protocol: as §1

[7] = tested on: Escherichia coli impB; assay: MIC, liquid broth tube dilution assay, E. coli impB; type: cell-based; details: H108 medium, 37° C., 6-7 hours
Protocol: as §1

[8] = tested on: Staphylococcus aureus 209P; assay: Agar diffusion, S. aureus 209P; type: cell-based; details: 25 μg per well, overnight at 37° C.
Protocol: (§2) (3) The effect of bacillaene on a wide spectrum of bacteria was determined using the agar diffusion method. The bacteria to be tested were grown in […] broth overnight at 37° C. This culture was used to inoculate […] agar using a standard pour plate method. A 1% inoculum of the overnight culture was used. Wells of 2 mm diameter were punched in the agar and bacillaene (25 μg) was loaded in each well. The plates were incubated overnight at 37° C. and lack of growth around the agar well was scored as inhibition by bacillaene of the growth of the organism.

[9] = tested on: Escherichia coli; assay: MIC, liquid broth tube dilution, E. coli strains overall; type: cell-based
Protocol: as §1

[10] = tested on: Procaryotic in vitro transc.-transl. sys.; assay: In vitro protein synthesis, procaryotic transcription-translation coupled system (35S incorporation); type: biochemical
Source text: A prokaryotic in vitro transcription-translation coupled system was used for these experiments (Promega Corporation, 2800, Woods Hollow Road, Madison, Wis.).

[11] = tested on: Staphylococcus aureus SC-2400; assay: Agar diffusion, S. aureus SC-2400; type: cell-based; details: 25 μg per well, overnight at 37° C.
Protocol: as §2

C/C(=C/C=C/C=C/C(C)C(=O)O)NC(=O)CC(O)\C(C)=C/C=C\C=C(C)\C=C\C=C/C=C/CNC(=O)C(O)CC(C)C (stereo not shown) [Bacillaene, bacillaene]
inhibition of eucaryotic in vitro protein translation system (in words) ([1]; at the concentrations tested): failed to inhibit
Inhibition of in vitro protein synthesis, rabbit reticulocyte in vitro trans. sys. ([1]; final conc. 0.75 μg/ml): < 7.0%
Inhibition of in vitro protein synthesis, rabbit reticulocyte in vitro trans. sys. ([1]; final conc. 1.5 μg/ml): < 7.0%
Inhibition of in vitro protein synthesis, rabbit reticulocyte in vitro trans. sys. ([1]; final conc. 6.0 μg/ml): < 7.0%
MIC [2]: 0.09 µg/mL (≈ 0.155 µM)
effect on growth of eukaryotic cells (in words) [3]: not observed to affect the growth
MIC [4]: 0.60 µg/mL (≈ 1.03 µM)
MIC [5]: 5.0 µg/mL (≈ 8.61 µM)
MIC [6]: 37.0 µg/mL (≈ 63.7 µM)
MIC [7]: 0.50 µg/mL (≈ 0.861 µM)
Growth Inhibition [8]: ++ (hazy)
potency against certain strains of Escherichia coli (in words) [9]: extremely potent
inhibition of procaryotic protein synthesis (in words) ([10]; 35S incorporation into trichloroacetic-acid-precipitable polypeptides): potent inhibitor of procaryotic protein synthesis
Inhibition of in vitro protein synthesis, procaryotic in vitro transc.-transl. sys. ([10]; final conc. 0.75 μg/ml): > 88.0%
Inhibition of in vitro protein synthesis, procaryotic in vitro transc.-transl. sys. ([10]; final conc. 1.5 μg/ml): > 95.0%
Growth Inhibition [11]: ++ (hazy)
